Laboratory results reported in PubChem BioAssay (NCI).
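1) Cells in 96-well plates. 2) Compound, 48 h, 5 concentrations. 3) Linear interpolation between surrounding doses. 4) Unreached endpoint = highest concentration. TGI denotes the concentration required for complete inhibition of growth.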

Legend:
Assay in all cases: growth of human tumour cells (NCI), 48 h
[1] = test system: 786-0 renal
[2] = test system: HCC-2998 colon
[3] = test system: HCT-116 colon
[4] = test system: HL-60(TB) leukemia
[5] = test system: HOP-62 NSCLC
[6] = test system: LOX IMVI melanoma
[7] = test system: SK-MEL-5 melanoma
[8] = test system: SNB-75 CNS
[9] = test system: T-47D breast
[10] = test system: MALME-3M melanoma

SMILES | TGI [1] | TGI [2] | TGI [3] | TGI [4] | TGI [5] | TGI [6] | TGI [7] | TGI [8] | TGI [9] | TGI [10]
Cn1c(=O)c2c(nc3n(CC(O)CCl)c(=O)ccn23)n(C)c1=O (configuration not stated) | > 100 µM | > 100 µM | > 100 µM | > 100 µM | > 100 µM | > 100 µM | > 100 µM | > 100 µM | > 100 µM | 
N#CCCN(CCC#N)c1ccc(/C=C2\N=C(c3ccccc3)N(c3ccc(F)cc3)C2=O)cc1 | > 100 µM |  | > 100 µM |  | > 100 µM | > 100 µM | > 100 µM | > 100 µM | > 100 µM | > 100 µM
COc1cc2c(c3c1c(=O)c1ccccc1n3C)C=CC1(CCCC1)O2 | 25.1 µM | 37.7 µM | 28.6 µM | 26.1 µM | 28.7 µM | 27.3 µM | 25.6 µM | 24.8 µM |  | 37.8 µM
C1=C(c2ccccc2)SC(N2CCCCC2)S1 (configuration not stated) |  |  | > 100 µM | > 100 µM | > 100 µM | > 100 µM |  | > 100 µM |  | > 100 µM
C=CCSC1=N/C(=C\c2ccc(Cl)cc2)C(=O)N1CC=C | > 100 µM | > 100 µM | > 100 µM | 24.5 µM | > 100 µM | > 100 µM | 31 µM |  | 63.5 µM | 
O=C(O)CCc1nc2c(n1-c1ccccc1)C(=O)c1ccccc1C2=O | > 100 µM | > 100 µM | > 100 µM | > 100 µM | > 100 µM | > 100 µM | > 100 µM | > 100 µM | > 100 µM | 
O=C1[C@H](O)[C@@H]2C(O)O[C@H]3[C@@H]2N1C[C@H]3[Si](c1ccccc1)(c1ccccc1)c1ccccc1 (some centres not stated) | > 100 µM | > 100 µM | > 100 µM |  | > 100 µM | > 100 µM | > 100 µM | 69.4 µM | > 100 µM | 
CCOC(=O)C(C#N)(Cc1c[nH]c2ccccc12)NC(C)=O (configuration not stated) |  | > 100 µM | > 100 µM | > 100 µM | > 100 µM | > 100 µM | > 100 µM | > 100 µM |  | > 100 µM
COC(=O)[C@H]1C=NN[C@@H]1C(=O)N1[C@H]2CC3CC[C@@]2(CS1(=O)=O)C3(C)C |  | > 100 µM | > 100 µM | > 100 µM | > 100 µM | > 100 µM | > 100 µM |  |  | > 100 µM
O=c1[nH]c2nc3ccccc3c(=O)n2/c1=C/c1ccc(Cl)cc1 | > 100 µM | 65.3 µM | > 100 µM | > 100 µM | > 100 µM | > 100 µM |  |  | > 100 µM | > 100 µM
CCN(CCCOc1ccccc1)CCN(CC)CCCOc1ccccc1 | 50.7 µM | 48.4 µM | > 100 µM | 25.4 µM | 45.5 µM | 27.9 µM | 5.44 µM | 48.6 µM |  | 32 µM
CCOC(=O)c1ccc(-n2[nH]nc(C(N)=O)c2=O)cc1 | > 100 µM | > 100 µM | > 100 µM |  | > 100 µM |  | > 100 µM | > 100 µM | > 100 µM | > 100 µM
